Data: paper PMC3961306, “Comparison of the Cancer Gene Targeting and Biochemical Selectivities of All Targeted Kinase Inhibitors Approved for Clinical Use” (PLoS ONE, 2014)

Legend:
Experiment in all cases: Kinase profiling in a biochemical assay panel (mobility shift assays and ELISA), %-inhibition at 1 μM; selectivity entropy
[1] = target: panel of more than 300 wild-type and mutant kinases (313 kinase panel) (Homo sapiens, UniProt P17948)
[2] = target: panel of more than 300 wild-type and mutant kinases (313 kinase panel) (Homo sapiens, UniProt Q04912)
[3] = target: T1, panel of more than 300 wild-type and mutant kinases (313 kinase panel) (Homo sapiens, UniProt Q13237)
T1 sequence (Q13237 1-762): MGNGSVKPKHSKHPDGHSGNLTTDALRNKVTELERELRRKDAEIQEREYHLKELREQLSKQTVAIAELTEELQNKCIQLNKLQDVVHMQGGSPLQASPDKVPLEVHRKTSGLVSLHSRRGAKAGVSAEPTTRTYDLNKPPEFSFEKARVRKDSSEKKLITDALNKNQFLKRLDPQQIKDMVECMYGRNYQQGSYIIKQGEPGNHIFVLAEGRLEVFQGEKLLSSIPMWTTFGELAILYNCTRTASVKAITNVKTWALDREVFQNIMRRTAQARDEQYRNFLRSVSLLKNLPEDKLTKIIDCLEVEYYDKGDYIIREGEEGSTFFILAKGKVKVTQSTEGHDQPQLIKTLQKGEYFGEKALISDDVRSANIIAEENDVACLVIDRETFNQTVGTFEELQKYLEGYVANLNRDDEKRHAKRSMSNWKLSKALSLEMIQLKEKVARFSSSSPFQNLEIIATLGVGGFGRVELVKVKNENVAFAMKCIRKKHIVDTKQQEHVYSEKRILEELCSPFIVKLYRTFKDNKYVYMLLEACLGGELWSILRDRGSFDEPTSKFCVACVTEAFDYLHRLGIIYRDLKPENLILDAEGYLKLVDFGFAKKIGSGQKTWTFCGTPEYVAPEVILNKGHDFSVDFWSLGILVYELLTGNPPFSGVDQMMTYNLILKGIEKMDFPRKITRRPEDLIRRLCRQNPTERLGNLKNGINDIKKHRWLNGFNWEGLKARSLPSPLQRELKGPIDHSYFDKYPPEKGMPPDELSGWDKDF

[4] = target: T2, panel of more than 300 wild-type and mutant kinases (313 kinase panel) (Homo sapiens, UniProt Q9NWZ3)
T2 sequence (Q9NWZ3 1-460): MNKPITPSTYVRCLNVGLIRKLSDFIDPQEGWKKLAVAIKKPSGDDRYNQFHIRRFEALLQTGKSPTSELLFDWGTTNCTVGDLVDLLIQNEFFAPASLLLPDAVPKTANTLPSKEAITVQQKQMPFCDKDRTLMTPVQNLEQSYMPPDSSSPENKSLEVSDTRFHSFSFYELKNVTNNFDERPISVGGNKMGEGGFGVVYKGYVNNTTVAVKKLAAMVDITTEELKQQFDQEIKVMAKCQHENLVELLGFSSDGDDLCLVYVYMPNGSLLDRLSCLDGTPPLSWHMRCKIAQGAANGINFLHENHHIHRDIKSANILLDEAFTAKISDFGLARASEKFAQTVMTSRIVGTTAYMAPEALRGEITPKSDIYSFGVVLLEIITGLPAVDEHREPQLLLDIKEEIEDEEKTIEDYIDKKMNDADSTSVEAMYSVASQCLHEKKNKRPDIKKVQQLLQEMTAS

[5] = target: T3, panel of more than 300 wild-type and mutant kinases (313 kinase panel) (Homo sapiens, UniProt Q9UL54)
T3 sequence (Q9UL54 1-1235): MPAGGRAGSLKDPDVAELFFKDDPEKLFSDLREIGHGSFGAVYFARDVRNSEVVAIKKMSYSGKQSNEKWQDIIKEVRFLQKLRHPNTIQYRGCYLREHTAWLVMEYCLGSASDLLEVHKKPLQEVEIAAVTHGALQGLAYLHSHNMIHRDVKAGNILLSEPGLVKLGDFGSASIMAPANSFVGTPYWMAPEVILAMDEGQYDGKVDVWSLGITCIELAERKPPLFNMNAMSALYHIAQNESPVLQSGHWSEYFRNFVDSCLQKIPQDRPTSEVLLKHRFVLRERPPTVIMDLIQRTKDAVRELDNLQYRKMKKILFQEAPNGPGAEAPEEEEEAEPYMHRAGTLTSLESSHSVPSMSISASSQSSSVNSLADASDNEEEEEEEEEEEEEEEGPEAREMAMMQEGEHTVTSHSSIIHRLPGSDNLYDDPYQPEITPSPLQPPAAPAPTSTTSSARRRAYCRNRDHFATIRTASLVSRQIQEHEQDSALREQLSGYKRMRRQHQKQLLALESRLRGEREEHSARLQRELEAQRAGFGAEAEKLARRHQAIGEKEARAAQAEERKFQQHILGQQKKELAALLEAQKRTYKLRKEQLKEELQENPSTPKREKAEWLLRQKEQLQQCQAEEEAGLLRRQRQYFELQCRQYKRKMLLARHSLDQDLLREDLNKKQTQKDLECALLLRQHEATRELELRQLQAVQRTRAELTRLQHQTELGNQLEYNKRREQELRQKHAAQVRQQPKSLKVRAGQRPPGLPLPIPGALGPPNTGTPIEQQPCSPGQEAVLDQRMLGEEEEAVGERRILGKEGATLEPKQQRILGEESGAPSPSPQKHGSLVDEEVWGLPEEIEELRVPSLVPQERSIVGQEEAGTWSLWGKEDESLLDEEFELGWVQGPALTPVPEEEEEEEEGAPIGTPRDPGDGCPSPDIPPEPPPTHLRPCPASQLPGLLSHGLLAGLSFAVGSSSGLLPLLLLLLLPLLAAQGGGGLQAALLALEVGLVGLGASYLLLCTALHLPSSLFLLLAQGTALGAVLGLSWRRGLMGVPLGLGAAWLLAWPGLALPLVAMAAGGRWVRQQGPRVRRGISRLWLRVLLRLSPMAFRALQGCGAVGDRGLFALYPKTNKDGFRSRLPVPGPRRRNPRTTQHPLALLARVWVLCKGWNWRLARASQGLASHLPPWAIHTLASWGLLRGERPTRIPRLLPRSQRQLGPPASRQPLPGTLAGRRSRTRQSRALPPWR

[6] = target: panel of more than 300 wild-type and mutant kinases (313 kinase panel) (Homo sapiens, UniProt P49137)
[7] = kinase MAPKAPK2, compound at 1 μM

Chain of panel of more than 300 wild-type and mutant kinases (313 kinase panel) (Homo sapiens, UniProt P49137) (P49137 whole entry, change not shown): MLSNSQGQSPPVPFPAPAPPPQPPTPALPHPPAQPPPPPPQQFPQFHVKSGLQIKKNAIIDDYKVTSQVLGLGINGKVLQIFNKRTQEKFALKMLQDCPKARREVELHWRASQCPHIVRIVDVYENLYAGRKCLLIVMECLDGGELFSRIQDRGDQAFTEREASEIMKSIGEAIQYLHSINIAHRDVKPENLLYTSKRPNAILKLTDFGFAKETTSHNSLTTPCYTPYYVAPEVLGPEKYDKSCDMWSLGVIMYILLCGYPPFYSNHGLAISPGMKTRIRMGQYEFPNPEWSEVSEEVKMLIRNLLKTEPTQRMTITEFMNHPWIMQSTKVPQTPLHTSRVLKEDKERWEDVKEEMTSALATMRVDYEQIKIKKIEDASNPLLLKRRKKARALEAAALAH

Compound	%-inhibition of FLT1 ([1]; kinase FLT1, compound at 1 μM) [%]	%-inhibition of RON ([2]; kinase RON, 1 μM) [%]	%-inhibition, CGK2 ([3]; kinase CGK2, 1 μM compound) [%]	%-inhibition of IRAK4 ([4]; kinase IRAK4, compound at 1 μM) [%]	%-inhibition of TAOK2 ([5]; kinase TAOK2, 1 μM) [%]	%-inhibition of MAPKAPK2 [6, 7] [%]	%-inhibition of FLT1 ([1]; 1 µM) [%]	%-inhibition of MAPKAPK2 ([6]; 1 µM) [%]	%-inhibition of RON ([2]; 1 µM) [%]	%-inhibition, CGK2 ([3]; 1 µM) [%]	%-inhibition of IRAK4 ([4]; 1 µM) [%]	%-inhibition of TAOK2 ([5]; 1 µM) [%]
Cc1ccc(C(=O)Nc2ccc(CN3CCN(C)CC3)c(C(F)(F)F)c2)cc1C#Cc1cnc2cccnn12 [ponatinib]	101	39	12	29	74	–	–	–	–	–	–	–
CC(C)(C)c1nc(-c2cccc(NS(=O)(=O)c3c(F)cccc3F)c2F)c(-c2ccnc(N)n2)s1 [dabrafenib]	62	37	-1.38	–	34	–	–	–	–	–	–	–
COc1cc(Nc2c(C#N)cnc3cc(OCCCN4CCN(C)CC4)c(OC)cc23)c(Cl)cc1Cl [bosutinib]	–	–	-0.53	27	10	–	–	–	–	–	–	–
Cc1nc(Nc2ncc(C(=O)Nc3c(C)cccc3Cl)s2)cc(N2CCN(CCO)CC2)n1 [dasatinib]	–	–	-6	–	–	–	–	–	–	–	–	–
CO[C@H]1C[C@@H]2CC[C@@H](C)[C@@](O)(O2)C(=O)C(=O)N2CCCC[C@H]2C(=O)O[C@H]([C@H](C)C[C@@H]2CC[C@@H](OC(=O)C(C)(CO)CO)[C@H](OC)C2)CC(=O)[C@H](C)/C=C(\C)[C@@H](O)[C@@H](OC)C(=O)[C@H](C)C[C@H](C)/C=C/C=C/C=C/1C [temsirolimus]	-2	-3	-2.84	-5.36	–	-17	–	–	–	–	–	–
C#Cc1cccc(Nc2ncnc3cc(OCCOC)c(OCCOC)cc23)c1 [erlotinib]	–	–	–	–	–	–	70	4.42	8	-1.7	3	-8
CCCS(=O)(=O)Nc1ccc(F)c(C(=O)c2c[nH]c3ncc(-c4ccc(Cl)cc4)cc23)c1F [vemurafenib]	25	-2	-2.26	-4.29	5.35	-16	–	–	–	–	–	–
N#CC[C@H](C1CCCC1)n1cc(-c2ncnc3[nH]ccc23)cn1 [ruxolitinib]	11	-5	–	–	35	-18	–	–	–	–	-3.69	–
CC(=O)Nc1cccc(-n2c(=O)n(C3CC3)c(=O)c3c(Nc4ccc(I)cc4F)n(C)c(=O)c(C)c32)c1 [trametinib]	-2.75	-6.44	-2.61	-5	-2.59	-0.335	–	–	–	–	–	–
COc1cc2c(Nc3ccc(Br)cc3F)ncnc2cc1OCC1CCN(C)CC1 [vandetanib]	–	–	-2.65	–	-3.51	-20	–	–	–	–	–	–
CS(=O)(=O)CCNCc1ccc(-c2ccc3ncnc(Nc4ccc(OCc5cccc(F)c5)c(Cl)c4)c3c2)o1 [lapatinib]	–	1.17	-9	-2	-5.44	–	–	–	–	–	–	–
CO[C@H]1C[C@@H]2CC[C@@H](C)[C@@](O)(O2)C(=O)C(=O)N2CCCC[C@H]2C(=O)O[C@H]([C@H](C)C[C@@H]2CC[C@@H](OCCO)[C@H](OC)C2)CC(=O)[C@H](C)/C=C(\C)[C@@H](O)[C@@H](OC)C(=O)[C@H](C)C[C@H](C)/C=C/C=C/C=C/1C [everolimus]	-2.63	-6.45	-4.58	-6	-0.8	-18	–	–	–	–	–	–
CCN(CC)CCNC(=O)c1c(C)[nH]c(/C=C2\C(=O)Nc3ccc(F)cc32)c1C [sunitinib]	98	22	–	48	–	–	–	–	–	–	–	–
CNC(=O)c1cc(Oc2ccc(NC(=O)Nc3ccc(Cl)c(C(F)(F)F)c3)c(F)c2)ccn1 [regorafenib]	102	3.5	-1.78	1.07	75	-21	–	–	–	–	–	–
O=S(=O)(c1cccc2cnccc12)N1CCCNCC1 [fasudil]	-0.73	-6	46	-4.68	-2.59	-13	–	–	–	–	–	–
C[C@@H](Oc1cc(-c2cnn(C3CCNCC3)c2)cnc1N)c1c(Cl)ccc(F)c1Cl [crizotinib]	53	–	-0.915	8	33	-17	–	–	–	–	–	–
Cc1cn(-c2cc(NC(=O)c3ccc(C)c(Nc4nccc(-c5cccnc5)n4)c3)cc(C(F)(F)F)c2)cn1 [nilotinib]	32	–	12	-29	7.47	2.56	–	–	-13	–	–	–
Cc1ccc(Nc2nccc(N(C)c3ccc4c(C)n(C)nc4c3)n2)cc1S(N)(=O)=O [pazopanib]	100	13	-1	-0.622	53	-2.44	–	–	–	–	–	–
